The experiment has as its target T1, delF508-CFTR-HRP (Homo sapiens, UniProt P13569, DEL508-508).
T1 construct: expressed in transfected cells
In words: Measurement of delF508-CFTR-HRP surface expression in CFBE41o- cells (HRP luminescence).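 As to DelF508-CFTR-HRP Amax %: percent efficacy relative to a reference CFTR corrector compound.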 It counts as cell-based. To be noted: for Emax: CFBE41o-, read-out: DelF508-CFTR-HRP Amax %; for EC50: mean of at least two replicates. Put shortly:
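EC50 derived by logistic regression of triplicate surface-HRP luminescence, plate-normalized to the lowest-concentration median. Doxycycline (500 ng/mL, 48 h) induced delF508-CFTR-HRP in CFBE41o- cells; compounds then applied 24 h at 37° C, 10 μM top, 3-fold over 10 points.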

Molecules are shown by their SMILES.

T1 sequence (P13569 with tags, fused parts or gaps DEL508-508): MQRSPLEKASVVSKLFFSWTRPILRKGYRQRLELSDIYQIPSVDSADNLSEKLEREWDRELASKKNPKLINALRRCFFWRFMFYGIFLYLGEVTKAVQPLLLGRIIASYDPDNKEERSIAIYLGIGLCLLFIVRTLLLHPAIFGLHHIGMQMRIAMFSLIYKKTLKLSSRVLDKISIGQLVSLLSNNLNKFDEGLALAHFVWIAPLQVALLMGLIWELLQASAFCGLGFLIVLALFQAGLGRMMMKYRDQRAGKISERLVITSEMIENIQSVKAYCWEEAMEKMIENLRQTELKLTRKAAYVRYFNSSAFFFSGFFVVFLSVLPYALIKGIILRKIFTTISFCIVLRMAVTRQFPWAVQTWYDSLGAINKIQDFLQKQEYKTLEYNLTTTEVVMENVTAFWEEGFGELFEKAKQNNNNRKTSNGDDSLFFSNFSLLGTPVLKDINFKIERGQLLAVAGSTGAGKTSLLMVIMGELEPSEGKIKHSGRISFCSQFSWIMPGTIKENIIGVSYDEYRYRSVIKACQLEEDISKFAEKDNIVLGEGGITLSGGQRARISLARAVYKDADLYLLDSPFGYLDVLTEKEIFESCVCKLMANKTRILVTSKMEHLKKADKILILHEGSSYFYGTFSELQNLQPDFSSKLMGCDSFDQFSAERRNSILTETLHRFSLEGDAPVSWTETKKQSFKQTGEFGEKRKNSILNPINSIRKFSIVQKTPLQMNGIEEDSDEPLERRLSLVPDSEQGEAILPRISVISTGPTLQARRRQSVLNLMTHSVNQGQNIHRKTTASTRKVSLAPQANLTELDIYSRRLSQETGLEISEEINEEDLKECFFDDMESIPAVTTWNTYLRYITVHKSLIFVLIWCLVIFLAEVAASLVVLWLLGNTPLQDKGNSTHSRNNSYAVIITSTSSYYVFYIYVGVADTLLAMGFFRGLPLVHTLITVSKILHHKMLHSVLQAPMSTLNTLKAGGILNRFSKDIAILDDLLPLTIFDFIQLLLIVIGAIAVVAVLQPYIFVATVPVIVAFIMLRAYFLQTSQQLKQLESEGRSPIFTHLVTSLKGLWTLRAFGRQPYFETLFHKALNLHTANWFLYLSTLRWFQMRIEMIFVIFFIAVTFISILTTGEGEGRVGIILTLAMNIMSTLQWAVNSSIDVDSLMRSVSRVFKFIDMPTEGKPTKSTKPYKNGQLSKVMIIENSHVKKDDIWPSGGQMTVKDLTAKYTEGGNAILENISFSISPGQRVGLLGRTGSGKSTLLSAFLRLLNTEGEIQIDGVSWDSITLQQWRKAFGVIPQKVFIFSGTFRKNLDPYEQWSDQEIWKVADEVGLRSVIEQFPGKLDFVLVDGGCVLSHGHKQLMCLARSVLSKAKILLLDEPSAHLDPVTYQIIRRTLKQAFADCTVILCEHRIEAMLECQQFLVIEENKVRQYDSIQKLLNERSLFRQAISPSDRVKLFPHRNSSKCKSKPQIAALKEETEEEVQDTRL

As to `C[C@@]1(O)CCN(c2cccc(S(=O)(=O)NC(=O)C3(Oc4cc(Cl)ccc4C4CC5(CCC5)C4)CC3)n2)C1` (single isomer, unassigned) [Example 7-2-2], the Emax came to 382% and the response was half-maximal at 0.88 µM (EC50).
The matching figures for `Cc1ccc(OC2CCC(C(C)(C)C)CC2)c(OC2(C(=O)NS(=O)(=O)c3cccc(N4CCC(O)(C(F)(F)F)CC4)n3)CC2)c1` (stereo not drawn) [Example 6-8, 1-(2-((4-(tert-butyl)cyclohexyl)oxy)-5-methylphenoxy)-N-((6-(4-hydroxy-4-(trifluoromethyl)piperidin-1-yl)pyridin-2-yl)sulfonyl)cyclopropanecarboxamide]: 428% and 0.21 µM.
On to `COC(=O)C(C)(C)CN1CCN(c2cccc(S(=O)(=O)NC(=O)C3(Oc4cc(C)ccc4C4CCCCC4)CC3)n2)CC1` [Example 2-38, Methyl 3-(4-(6-(N-(1-(2-cyclohexyl-5-methylphenoxy)cyclopropanecarbonyl)sulfamoyl)pyridin-2-yl)piperazin-1-yl)-2,2-dimethylpropanoate], for which the Emax is 293% and the EC50 (as a rule, the concentration giving half of the maximal effect) was determined as 0.36 µM.
Take `CC1(C)CCCN(c2ccc(Cl)cc2OC2(C(=O)NS(=O)(=O)c3cccc(N4CC[C@@](C)(O)C4)n3)CC2)C1` [Example 9-30, (R)-1-(5-Chloro-2-(3,3-dimethylpiperidin-1-yl)phenoxy)-N-((6-(3-hydroxy-3-methylpyrrolidin-1-yl)pyridin-2-yl)sulfonyl)cyclopropanecarboxamide]: the Emax was found to be 590% and the concentration for a half-maximal effect (EC50) came to 0.59 µM.
As for `Cc1cnc(N2CCC(C)(C)CC2)c(OC2(C(=O)NS(=O)(=O)c3cccc(N4CC[C@H](O)C4)n3)CC2)c1` [Example 10-11, (S)-1-((2-(4,4-dimethylpiperidin-1-yl)-5-methylpyridin-3-yl)oxy)-N-((6-(3-hydroxypyrrolidin-1-yl)pyridin-2-yl)sulfonyl)cyclopropanecarboxamide], the Emax was 181% and the half-maximal effective concentration (EC50) is 2.95 µM.
As for `Cc1ccc(OC2CCCC2)c(OC2(C(=O)NS(=O)(=O)c3cccc(N4CC[C@H](O)C4)n3)CC2)c1` [Example 6-13, (S)-1-(2-(cyclopentyloxy)-5-methylphenoxy)-N-((6-(3-hydroxypyrrolidin-1-yl)pyridin-2-yl)sulfonyl)cyclopropanecarboxamide], the Emax is 285% and the 50% effective concentration (EC50) stood at 2.55 µM.
On to `O=C(NS(=O)(=O)c1cccc(N2CCC3(CCCO3)CC2)n1)C1(Oc2cc(Cl)ccc2C2CC3(CCC3)C2)CC1` [Example 7-6, N-((6-(1-oxa-8-azaspiro[4.5]decan-8-yl)pyridin-2-yl)sulfonyl)-1-(5-chloro-2-(spiro[3.3]heptan-2-yl)phenoxy)cyclopropanecarboxamide], for which the Emax amounted to 408% and the EC50 turned out to be 0.85 µM.
Take `CC1(C)CCN(c2ccc(Cl)cc2OC2(C(=O)NS(=O)(=O)c3cccc(N4CCC(C)(O)C4)n3)CC2)CC1` (single isomer, unassigned) [Example 9-39-1, 1-(5-Chloro-2-(4,4-dimethylpiperidin-1-yl)phenoxy)-N-((6-(3-hydroxy-3-methylpyrrolidin-1-yl)pyridin-2-yl)sulfonyl)cyclopropane-1-carboxamide]: the “DelF508-CFTR-HRP Amax %” value stood at 726.4% and the EC50 was determined as 0.57 µM.
Take `O=C(NS(=O)(=O)c1cccc(N2CC[C@H](O)C2)n1)C1(Oc2cc(Cl)ccc2-c2cccc(OC(F)(F)F)c2)CC1` [Example 5-6, (S)-1-((4-Chloro-3′-(trifluoromethoxy)-[1,1′-biphenyl]-2-yl)oxy)-N-((6-(3-hydroxypyrrolidin-1-yl)pyridin-2-yl)sulfonyl)cyclopropane-1-carboxamide]: the Emax came out at 280% and the EC50 was determined as 1.77 µM.
`O=C(NS(=O)(=O)c1cccc(N2CC[C@H](O)C2)n1)C1(Oc2cc(Cl)ccc2-c2ccc(F)c(C(F)(F)F)c2)CC1` [Example 5-7]: the Emax stood at 279% and the EC50 was 1.38 µM.
`Cc1ccc(C2CC3(CCC3)C2)c(OC2(C(=O)NS(=O)(=O)c3cccc(N4CC[C@H](O)C4)n3)CC2)c1` [Example 4-19, (S)-N-((6-(3-Hydroxypyrrolidin-1-yl)pyridin-2-yl)sulfonyl)-1-(5-methyl-2-(spiro[3.3]heptan-2-yl)phenoxy)cyclopropane-1-carboxamide]: the Emax is 626% and it took 1.09 µM to reach a half-maximal effect (EC50).
In the case of `Cc1ccc(C2CCC3(CCC3)OC2)c(OC2(C(=O)NS(=O)(=O)c3cccc(N4CCC(C)(O)CC4)n3)CC2)c1` (single isomer, unassigned) [Example 11-4-2, N-((6-(4-hydroxy-4-methylpiperidin-1-yl)pyridin-2-yl)sulfonyl)-1-(5-methyl-2-(5-oxaspiro[3.5]nonan-7-yl)phenoxy)cyclopropane-1-carboxamide], the “DelF508-CFTR-HRP Amax %” value was 242.9% and the midpoint of the response, the EC50, lay at 2.65 µM.
Regarding `CC1(C)CCCN(c2ccc(Cl)cc2OC2(C(=O)NS(=O)(=O)c3cccc(N4CC[C@](C)(O)C4)n3)CC2)C1` [Example 9-27, (S)-1-(5-Chloro-2-(3,3-dimethylpiperidin-1-yl)phenoxy)-N-((6-(3-hydroxy-3-methylpyrrolidin-1-yl)pyridin-2-yl)sulfonyl)cyclopropanecarboxamide], the Emax worked out at 857% and the midpoint of the response, the EC50, lay at 0.61 µM.
As to `Cc1ccc(C2CCC(C)(C)OC2)c(OC2(C(=O)NS(=O)(=O)c3cccc(N4CC[C@H](O)C4)n3)CC2)c1` (single isomer, unassigned) [Example 4-24-1], the “DelF508-CFTR-HRP Amax %” value came out at 295% and the EC50 is 3.62 µM.
Take `Cc1ccc(C2CC(F)(F)C2)c(OC2(C(=O)NS(=O)(=O)c3cccc(N4CC(C)(O)C4)n3)CC2)c1` [Example 4-3, 1-(2-(3,3-Difluorocyclobutyl)-5-methylphenoxy)-N-((6-(3-hydroxy-3-methylazetidin-1-yl)pyridin-2-yl)sulfonyl)cyclopropanecarboxamide]: the Emax is 158% and it took 4.52 µM to reach a half-maximal effect (EC50).
Turning to `O=C(NS(=O)(=O)c1cccc(N2CC[C@H](O)C2)n1)C1(Oc2cc(Cl)ccc2N2CC3(COC3)C2)CC1` [Example 9-23, (S)-1-(5-Chloro-2-(2-oxa-6-azaspiro[3.3]heptan-6-yl)phenoxy)-N-((6-(3-hydroxypyrrolidin-1-yl)pyridin-2-yl)sulfonyl)cyclopropanecarboxamide], the Emax was found to be 13.7% and the EC50 was determined as 10 µM.
Consider `CC1(O)CCN(c2cccc(S(=O)(=O)NC(=O)C3(Oc4cc(Cl)ccc4C4CC5(CCC5)C4)CCCC3)n2)C1` (single isomer, unassigned) [Example 7-18-2, 1-(5-Chloro-2-(spiro[3.3]heptan-2-yl)phenoxy)-N-((6-(3-hydroxy-3-methylpyrrolidin-1-yl)pyridin-2-yl)sulfonyl)cyclopentane-1-carboxamide], for which the “DelF508-CFTR-HRP Amax %” value stood at 371.9% and a half-maximal effect (EC50) was put at 1.67 µM.
Regarding `CC1(C)CCN(c2ccc(Cl)cc2OC2(C(=O)NS(=O)(=O)c3cccc(N4CCC5(CC4)OCc4ccccc45)n3)CC2)CC1` [Example 10-8, N-((6-(3H-spiro[isobenzofuran-1,4′-piperidin]-1′-yl)pyridin-2-yl)sulfonyl)-1-(5-chloro-2-(4,4-dimethylpiperidin-1-yl)phenoxy)cyclopropanecarboxamide], the Emax was 307% and the response was half-maximal at 0.43 µM (EC50).

The record behind these values is US20220033407A1, “N-(pyridin-2-ylsulfonyl)cyclopropanecarboxamide Derivatives and their Use in the Treatment of Disease” (NOVARTIS AG, priority 2018, published 2022).
